Results taken from US8361510B2, “Nanogels for cellular delivery of therapeutics” (Georgia Tech Research Corporation, priority 2008, dated 2013).
Where no end group is shown, it is not given here.

System: EGFR
Experiment: EGFR expression by immunoblotting in Hey cells
Format: cell-based
Method: Immunoblotting. Hey cells were plated into 6-well plates (5×10^5/well) and allowed to adhere overnight at 37° C., 5% CO2. The cells were lysed with 100 μL of lysis buffer (50 mM Tris-HCl, pH 7.5, 150 mM NaCl, 2 mM EDTA (Fisher), 2 mM EGTA (Fisher), 1 mM sodium orthovanadate, 2.5 mM sodium pyrophosphate, 1 mM β-gycerolphosphate, 1 mM phenylmethanesulfonyl fluoride, 10 μg/mL aprotinin, 10 μg/mL leupeptin, 1% Triton X-100, and 5% glycerol), and the cell lysates sonicated four times for five seconds each. The lysates were cleared by centrifugation at 11,000×g rcf for […] at 4° C. Cell lysates were prepared for analysis by the addition of an equal volume of Laemmli 2× sample buffer. The samples were heated to 95° C. for […] to denature the proteins. The proteins were separated on a 10% SDS-PAGE gel and transferred onto nitrocellulose. The blots were blocked with either 5% nonfat dry milk (NFDM) or 5% bovine serum albumin (BSA) in 10 mM Tris-buffered saline, pH 7.5 plus 1% Tween 20 (TBST, BioRad) for 1 hour at room temperature. The blots were probed with anti-EGFR antibody (Cell Signaling, Danvers, Mass.; cat. no. 4405) or with a β-actin antibody (Millipore, Billerica, Mass.; Mab1501) diluted in 5% NFDM or 5% BSA overnight, with shaking at 4° C. For EphA2 detection, the blots were probed with an anti-EphA2 polyclonal antibody (Santa Cruz Biotechnology, Santa Cruz, Calif.; sc-294). The blots were washed three times with TBST and probed with goat anti-rabbit IgG (Santa Cruz, sc-2004) or with goat anti-mouse IgG (Santa Cruz, sc-2005) linked to horseradish peroxidase (HRP). Bands were visualized on film (Pierce) using the ECL reagent, SuperSignal West Pico™ (Pierce).
As described above, we chose siRNA targeting EGFR; knockdown of this receptor is non-lethal, but has clinical relevance in the treatment of drug resistant ovarian carcinomas. To determine if we could effectively knockdown EGFR in vitro, EGFR siRNA was encapsulated at a concentration of 16.6 μg of EGFR siRNA/mg of nanogels, using the loading technique described above. […]

## YSA-conjugated nanogels: core/shell pNIPMAm nanogels with YSA peptide coupled to shell amines via maleimide (EMCA) (YSAYPDSVPMMSC; also: coupled to nanogel shell amines via maleimide (EMCA))
Example 1, 4 h incubation, harvested at 48 hours, 1 mg nanogels/5×10^5 cells
  EGFR expression relative to controls: small, statistically insignificant decrease
Example 2
  EGFR expression of control treatments compared to untreated cells: slight decrease
